Assay results as given in article PMC12521527, “In vivo self-assembled nano-PROTAC for the dual degradation of AR and HSP90 to overcome castration-resistant prostate cancer resistance” (Signal Transduction and Targeted Therapy, 2025).

System: 22Rv1 xenograft tumor
Test: Antitumor efficacy in 22Rv1 xenograft mice
Assay type: in vivo, BALB/c nude mice
Details: comparison study, n = 6; for tumor volume: 20 days, Psa-AR 30 mg/kg i.v. every 2 days x5, enzalutamide 25 mg/kg, pimitespib 15 mg/kg, PBS 1017 mm^3; for median survival: PBS 21 days
Text: To evaluate the therapeutic potential and superiority of Psa-AR in prostate cancer, we established subcutaneous xenograft tumor models using AR-mutant 22Rv1 cells.[51] All procedures strictly complied with the Guide for the Care and Use of Laboratory Animals and were approved by the Committee for Animal Research of the National Center for Nanoscience and Technology. When the tumor volume reached ~100 mm³, 22Rv1-bearing mice were randomized into three groups (n = 6/group): the PBS control, Psa-AR, and P-AR groups. Treatments were administered via tail vein injection every other day for five cycles. The tumor volume and body weight were monitored every other day for 20 days (Fig. 6a). […] The individual tumor growth curves for each group are presented in Supplementary Fig. 20. No obvious body weight loss was observed during treatment (Fig. 6c). […] To elucidate the mechanistic basis of tumor suppression, we quantitatively assessed AR and HSP90 protein expression in excised tumor tissues through IF. […] This dual-target degradation profile directly correlates with the observed therapeutic efficacy, validating the assembly driven target engagement and degradation strategy. […] To address the critical limitations of conventional PROTACs, particularly the Hook effect-induced nonlinear pharmacokinetics and narrow therapeutic window. We rigorously evaluated the dose-responsive antitumor efficacy of Psa-AR in 22Rv1 xenograft models. Mice bearing subcutaneous tumors received escalating doses (10, 20, or 30 mg/kg) via intravenous administration every 48 h for five consecutive treatment cycles. The tumor volume and body weight were evaluated for 20 days. Tumor volume was suppressed in a dose-dependent manner, with a mean tumor volume of […], a mean tumor volume of 536 mm^3 at 20 mg/kg and a mean tumor volume of 220 mm^3 at 10 mg/kg (Fig. 6h). The individual tumor growth curves for each group are presented in Supplementary Fig. 21. […] IF analysis of tumor sections provided spatially resolved dose-dependent quantification of AR and HSP90 proteolysis. […] Collectively, the dose-dependent tumor suppression and coordinated target proteolysis observed in the 22Rv1 xenograft model mechanistically validated the therapeutic superiority of in situ self-assembled Psa-AR. To systematically evaluate the therapeutic advantages of the dual-protein targeting strategy of Psa-AR through simultaneous degradation of AR and HSP90 in overcoming tumor drug resistance, this study compared the antitumor efficacy of Psa-AR with that of current clinical regimens (including the AR inhibitor enzalutamide, the HSP90 inhibitor pimitespib, and their combination) in 22Rv1 xenograft models (Fig. 7a). The experimental protocol was designed as follows: When the tumor volume reached ~100 mm³, the tumor-bearing mice were
Fig. 6 In vivo antitumor efficacy of Psa-AR. a Schematic illustration of the tumor inoculation and treatment protocol for 22Rv1 xenograft mice. (n = 6 per group) b Observation of the tumor inhibitory effect on 22Rv1 xenograft mice in PBS, P-AR, or Psa-AR (20 mg/kg in 200 μL of PBS) over 20 days of treatment. c Body weight changes in 22Rv1 xenograft mice in different treatment groups over 20 days. d Kaplan‒Meier survival curves of 22Rv1 xenograft mice in different groups over 20 days of treatment. e Immunofluorescence analysis of AR protein levels in 22Rv1 tumor tissues after treatment with PBS, P-AR, or Psa-AR (20 mg/kg in 200 μL of PBS) for 20 days. Scale bar: 20 μm. f Immunofluorescence analysis of the HSP90 protein levels in 22Rv1 tumor tissues after treatment with PBS, P-AR, or Psa-AR (20 mg/kg in 200 μL of PBS) for 20 days. Scale bar: 20 μm. g Terminal deoxynucleotidyl transferase (TdT) dUTP nick-end labeling (TUNEL) staining of tumors after treatment with PBS, P-AR, or Psa-AR (20 mg/kg in 200 μL of PBS) for 20 days. […]

Compound	tumor volume [mm^3]	median survival [days]
CNC(=O)c1ccc(N2C(=S)N(c3ccc(C#N)c(C(F)(F)F)c3)C(=O)C2(C)C)cc1F [enzalutamide, reference compound]	765	27
CCc1cc(C(N)=O)ccc1-n1nc(C(C)C)c2c(-n3cnc(-c4cnn(C)c4)c3)ccnc21 [pimitespib, reference compound]	742	29
